{
  "source": "paper PMC9490236",
  "about": "“Accurate de novo design of membrane-traversing macrocycles” (Cell, 2022)",
  "note": "Where a SMILES comes first, the peptide text is derived from it. [ ]: non-standard residue; d: D form. NMeF = CN[C@@H](Cc1ccccc1)C(=O)O; dNMeL = CN[C@H](CC(C)C)C(=O)O; NMeA = CN[C@@H](C)C(=O)O; Nle = CCCC[C@H](N)C(=O)O; dNMeA = CN[C@H](C)C(=O)O",
  "data": [
    {"settings": "PAMPA", "values": [
      {"smiles": "CC(C)[C@@H]1C(=O)N[C@@H](Cc2ccccc2)C(=O)N2CCC[C@H]2C(=O)N(C)[C@H](Cc2ccccc2)C(=O)N[C@H](C)C(=O)N2CCC[C@H]2C(=O)N1C", "note": "(single isomer, unassigned) [Design D6.8.p2, *DPHE DALA PRO *DVAL PHE PRO]", "PAMPA_Papp_Avg": "1.77e-06 cm/s", "PAMPA_R1": "1.92e-06 cm/s", "PAMPA_R3": "1.94e-06 cm/s"},
      {"smiles": "CC(C)C[C@H]1C(=O)N2CCC[C@@H]2C(=O)N[C@@H](Cc2ccccc2)C(=O)N2CCC[C@H]2C(=O)N[C@H](C(C)C)C(=O)N[C@H](Cc2ccccc2)C(=O)N1C", "note": "(single isomer, unassigned) [Design D6.9.p2, DVAL DPHE *LEU DPRO PHE PRO]", "PAMPA_Papp_Avg": "6.77e-06 cm/s", "PAMPA_R1": "6.03e-06 cm/s", "PAMPA_R3": "8.48e-06 cm/s"},
      {"smiles": "CC(C)C[C@H]1NC(=O)[C@H]2CCCN2C(=O)[C@@H]2CCCN2C(=O)[C@@H](Cc2ccccc2)NC(=O)[C@@H](C(C)C)NC(=O)[C@H](CC(C)C)N(C)C(=O)[C@@H](Cc2ccccc2)NC1=O", "note": "(single isomer, unassigned) [Design D7.7.p2, PRO DPRO DLEU DPHE *LEU DVAL DPHE]", "PAMPA_Papp_Avg": "9.06e-06 cm/s", "PAMPA_R1": "7.93e-06 cm/s", "PAMPA_R3": "1.17e-05 cm/s"},
      {"smiles": "CC[C@H](C)[C@@H]1NC(=O)[C@H](Cc2ccccc2)NC(=O)[C@H]2CCCN2C(=O)[C@H]([C@@H](C)CC)NC(=O)[C@H](C(C)C)NC(=O)[C@@H](C)NC(=O)[C@H]2CCCN2C1=O", "note": "(single isomer, unassigned) [Design D7.8.p2, VAL ILE DPRO PHE ILE DPRO DALA]", "PAMPA_Papp_Avg": "4.92e-06 cm/s", "PAMPA_R1": "4.52e-06 cm/s", "PAMPA_R3": "5.64e-06 cm/s"},
      {"smiles": "CC(C)C[C@H]1NC(=O)[C@@H]2CCCN2C(=O)[C@H]2CCCN2C(=O)[C@H](C(C)C)NC(=O)[C@@H](CC(C)C)NC(=O)[C@@H]2CCCN2C(=O)[C@H]2CCCN2C(=O)[C@H](C(C)C)NC1=O", "note": "(single isomer, unassigned) [Design D8.12.p2, DLEU VAL DPRO PRO DLEU VAL DPRO PRO]", "PAMPA_Papp_Avg": "2.00E-07", "PAMPA_R1": "1.77E-07", "PAMPA_R3": "2.25E-07"},
      {"smiles": "CC(C)C[C@@H]1NC(=O)[C@@H](C(C)C)NC(=O)[C@H](CC(C)C)N(C)C(=O)[C@H]2CCCN2C(=O)[C@@H](C(C)C)NC(=O)[C@H]2CCCN2C(=O)[C@@H](C(C)C)NC(=O)[C@@H](Cc2ccccc2)N(C)C(=O)[C@H](CC(C)C)N(C)C1=O", "note": "(single isomer, unassigned) [Design D9.8.p1, *LEU DVAL LEU *LEU *DPHE DVAL DPRO DVAL DPRO]", "PAMPA_Papp_Avg": "5.72E-06", "PAMPA_R1": "5.56E-06", "PAMPA_R3": "6.18E-06"},
      {"smiles": "CC(C)C[C@@H]1NC(=O)[C@@H](C(C)C)NC(=O)[C@H](CC(C)C)N(C)C(=O)[C@H]2CCCN2C(=O)[C@@H](C(C)C)NC(=O)[C@H]2CCCN2C(=O)[C@@H](C(C)C)NC(=O)[C@@H](Cc2ccccc2)N(C)C(=O)[C@H](CC(C)C)N(C)C1=O", "note": "(single isomer, unassigned) [Design D9.8.p2, *LEU DVAL LEU *LEU *DPHE DVAL DPRO DVAL DPRO]", "PAMPA_Papp_Avg": "9.35E-07", "PAMPA_R1": "1.16E-06", "PAMPA_R3": "8.61E-07"},
      {"smiles": "CC(C)C[C@@H]1C(=O)N(C)[C@@H](Cc2ccccc2)C(=O)N[C@@H](C(C)C)C(=O)N2CCC[C@H]2C(=O)NCC(=O)N2CCC[C@H]2C(=O)N(C)[C@H](CC(C)C)C(=O)N[C@@H](C(C)C)C(=O)N[C@H](CC(C)C)C(=O)N1C", "note": "(single isomer, unassigned) [Design D9.43.p1, *DLEU VAL DLEU *DLEU *PHE VAL PRO GLY PRO]", "PAMPA_Papp_Avg": "9.46E-07", "PAMPA_R1": "8.93E-07", "PAMPA_R3": "5.40E-07"},
      {"smiles": "CC(C)C[C@@H]1C(=O)N(C)[C@@H](Cc2ccccc2)C(=O)N[C@@H](C(C)C)C(=O)N2CCC[C@H]2C(=O)NCC(=O)N2CCC[C@H]2C(=O)N(C)[C@H](CC(C)C)C(=O)N[C@@H](C(C)C)C(=O)N[C@H](CC(C)C)C(=O)N1C", "note": "(single isomer, unassigned) [Design D9.43.p2, *DLEU VAL DLEU *DLEU *PHE VAL PRO GLY PRO]", "PAMPA_Papp_Avg": "3.30E-06", "PAMPA_R1": "3.34E-06", "PAMPA_R3": "3.77E-06"},
      {"smiles": "CC[C@@H](C)[C@H]1NC(=O)[C@H](CC(C)C)N(C)C(=O)[C@H]2CCCN2C(=O)[C@H](CC(C)C)NC(=O)[C@H](Cc2ccccc2)N(C)C(=O)CN(C)C(=O)[C@@H](C(C)C)NC(=O)[C@H](C)NC(=O)[C@H]2CCCN2C(=O)[C@@H]2CCCN2C1=O", "note": "(single isomer, unassigned) [Design D10.58.p2, *GLY *PHE LEU DPRO *LEU DILE PRO DPRO ALA DVAL]", "PAMPA_Papp_Avg": "3.23E-07", "PAMPA_R1": "3.15E-07", "PAMPA_R3": "2.44E-07"},
      {"smiles": "CC[C@@H](C)[C@H]1NC(=O)[C@H](CC(C)C)N(C)C(=O)[C@H]2CCCN2C(=O)[C@H](CC(C)C)NC(=O)[C@@H](Cc2ccccc2)N(C)C(=O)[C@H](CC(C)C)N(C)C(=O)[C@@H](C(C)C)NC(=O)[C@H](C)NC(=O)[C@H]2CCCN2C(=O)[C@@H]2CCCN2C1=O", "note": "(single isomer, unassigned) [Design D10.60.p2, *LEU *DPHE LEU DPRO *LEU DILE PRO DPRO ALA DVAL]", "PAMPA_Papp_Avg": "1.17E-06", "PAMPA_R1": "1.49E-06", "PAMPA_R3": "1.62E-06"},
      {"smiles": "CC[C@@H](C)[C@H]1NC(=O)[C@@H](CC(C)C)N(C)C(=O)[C@@H]2CCCN2C(=O)[C@H]([C@@H](C)CC)NC(=O)[C@H]([C@@H](C)CC)N(C)C(=O)[C@@H](CC(C)C)NC(=O)[C@@H](C(C)C)N(C)C(=O)[C@H]2CCCN2C(=O)[C@@H](C(C)C)NC(=O)[C@@H]2CCCN2C(=O)[C@H]([C@@H](C)CC)NC1=O", "note": "(single isomer, unassigned) [Design D11.23.p1, DVAL DPRO *DVAL DLEU *ILE ILE PRO *DLEU DILE ILE PRO]", "PAMPA_Papp_Avg": "2.70E-06", "PAMPA_R1": "1.22E-06", "PAMPA_R3": "5.23E-06"},
      {"smiles": "CC[C@@H](C)[C@H]1NC(=O)[C@@H](CC(C)C)N(C)C(=O)[C@@H]2CCCN2C(=O)[C@H]([C@@H](C)CC)NC(=O)[C@H]([C@@H](C)CC)N(C)C(=O)[C@@H](CC(C)C)NC(=O)[C@@H](C(C)C)N(C)C(=O)[C@H]2CCCN2C(=O)[C@@H](C(C)C)NC(=O)[C@@H]2CCCN2C(=O)[C@H]([C@@H](C)CC)NC1=O", "note": "(single isomer, unassigned) [Design D11.23.p2, DVAL DPRO *DVAL DLEU *ILE ILE PRO *DLEU DILE ILE PRO]", "PAMPA_Papp_Avg": "9.83E-07", "PAMPA_R1": "1.49E-06", "PAMPA_R3": "4.80E-07"},
      {"smiles": "CC[C@H](C)[C@@H]1NC(=O)[C@@H](CC(C)C)NC(=O)[C@H](CC(C)C)NC(=O)[C@H]2CCCN2C(=O)[C@@H]2CCCN2C(=O)[C@H]([C@@H](C)CC)NC(=O)[C@@H](CC(C)C)N(C)C(=O)[C@@H](CC(C)C)N(C)C1=O", "note": "[Design D8.9, ILE *DLEU *DLEU ILE PRO DPRO LEU DLEU] (cyclo(IP[dP]L[dL]I[dNMeL][dNMeL]))", "PAMPA_Papp_Avg": "BQL", "PAMPA_R1": "BQL", "PAMPA_R3": "BQL"},
      {"smiles": "CC[C@@H](C)[C@H]1NC(=O)[C@H]2CCCN2C(=O)[C@@H]2CCCN2C(=O)[C@H](C(C)C)NC(=O)[C@@H](C(C)C)NC(=O)[C@@H]2CCCN2C(=O)[C@H]2CCCN2C(=O)[C@@H](C)NC1=O", "note": "[Design D8.11, DALA DPRO PRO DVAL VAL PRO DPRO DILE] (cyclo([dV]VP[dP][dI][dA][dP]P))", "PAMPA_Papp_Avg": "BQL", "PAMPA_R1": "BQL", "PAMPA_R3": "BQL"},
      {"smiles": "CC[C@H](C)[C@@H]1NC(=O)[C@@H]2CCCN2C(=O)[C@H]2CCCN2C(=O)[C@@H](CC(C)C)NC(=O)[C@@H](CC(C)C)N(C)C(=O)[C@@H]2CCCN2C(=O)[C@H](Cc2ccccc2)N(C)C(=O)[C@@H](Cc2ccc(O)cc2)NC1=O", "note": "[Design D8.13, PRO ILE DTYR *PHE PRO *DLEU DLEU DPRO] (cyclo(I[dY][NMeF]P[dNMeL][dL][dP]P))", "PAMPA_Papp_Avg": "BQL", "PAMPA_R1": "BQL", "PAMPA_R3": "BQL"},
      {"smiles": "CC[C@@H](C)[C@H]1NC(=O)[C@@H]2CCCN2C(=O)[C@H]2CCCN2C(=O)[C@@H](CC(C)C)NC(=O)[C@@H](C)N(C)C(=O)[C@H]2CCCN2C(=O)[C@H]2CCCN2C(=O)[C@H](C(C)C)NC1=O", "note": "[Design D8.24, DPRO PRO DILE VAL DPRO DPRO *DALA DLEU] (cyclo([dI]V[dP][dP][dNMeA][dL][dP]P))", "PAMPA_Papp_Avg": "BQL", "PAMPA_R1": "BQL", "PAMPA_R3": "BQL"},
      {"smiles": "CCCC[C@@H]1NC(=O)[C@@H]2CCCN2C(=O)[C@@H](C(C)C)NC(=O)[C@@H](C)N(C)C(=O)[C@@H](CC(C)C)NC(=O)[C@@H](CC(C)C)NC(=O)[C@@H]2CCCN2C(=O)[C@H]2CCCN2C1=O", "note": "[Design D8.29, MET DPRO PRO DLEU DLEU *DALA DVAL PRO] (cyclo([dL][dL][dNMeA][dV]P[Nle][dP]P))", "PAMPA_Papp_Avg": "3.60E-07", "PAMPA_R1": "3.98E-07", "PAMPA_R3": "3.61E-07"},
      {"smiles": "CC[C@H](C)[C@@H]1NC(=O)[C@@H](C)N(C)C(=O)[C@@H](C)N(C)C(=O)[C@H](C(C)C)NC(=O)[C@H]2CCCN2C(=O)[C@@H]2CCCN2C(=O)[C@H](C(C)C)NC(=O)[C@H]2CCCN2C(=O)[C@@H]2CCCN2C1=O", "note": "[Design D9.12, PRO DPRO VAL PRO DPRO VAL *DALA *DALA ILE] (cyclo(IP[dP]VP[dP]V[dNMeA][dNMeA]))", "PAMPA_Papp_Avg": "BQL", "PAMPA_R1": "BQL", "PAMPA_R3": "BQL"},
      {"smiles": "CC(C)C[C@@H]1NC(=O)[C@H]2CCCN2C(=O)[C@@H]2CCCN2C(=O)[C@H](C)N(C)C(=O)[C@@H](C(C)C)NC(=O)[C@H](Cc2ccccc2)NC(=O)[C@H]2CCCN2C(=O)[C@@H]2CCCN2C(=O)[C@@H](CC(C)C)NC1=O", "note": "[Design D9.20, DLEU PRO DPRO PHE DVAL *ALA PRO DPRO LEU] (cyclo(F[dV][NMeA]P[dP]L[dL]P[dP]))", "PAMPA_Papp_Avg": "BQL", "PAMPA_R1": "BQL", "PAMPA_R3": "BQL"},
      {"smiles": "CCCC[C@@H]1NC(=O)[C@H](C(C)C)NC(=O)[C@H]2CCCN2C(=O)[C@@H]2CCCN2C(=O)[C@H](C)NC(=O)[C@@H](C)N(C)C(=O)[C@@H](CC(C)C)N(C)C(=O)[C@@H](C(C)C)NC(=O)[C@@H]2CCCN2C1=O", "note": "[Design D9.21, ALA PRO DPRO VAL MET PRO DVAL *DLEU *DALA] (cyclo(AP[dP]V[Nle]P[dV][dNMeL][dNMeA]))", "PAMPA_Papp_Avg": "2.94E-07", "PAMPA_R1": "2.78E-07", "PAMPA_R3": "3.05E-07"}
    ]}
  ]
}
